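Method: 48-hour compound exposure of cells in 96-well plates, five concentrations, linear interpolation of endpoints. At the GI50, growth is halved. TGI marks complete inhibition of growth.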 A value given as a limit tells only on which side of the number the result lay.

Holding throughout (assay): inhibition of tumour cell growth, NCI panel, 48 h
The subject of assay [1] is KM12 colon.
In assay [2] the test system is MOLT-4 leukemia.
For assay [3], the system named is HCC-2998 colon.
The subject of assay [4] is HOP-92 NSCLC.
Assay [5] has as its system SK-OV-3 ovarian.
Assay [6] concerns NCI-H23 lung.
Assay [7] has as its system HS 578T breast.
Assay [8] relates to HT29 colon.
The test system of assay [9] is SF-539 CNS.
Assay [10] relates to ACHN renal.

As for `COc1cnc2c(c1)C(=O)c1c-2n(CCCN2CCN(C)CC2)c(=O)c2cc(Cl)ccc12`, the GI50 is 3.37 µM in [1]; 0.345 µM in [2]; 11.3 µM in [3]; 4.68 µM in assay [4]; 10.1 µM in assay [5]; 6.27 µM in assay [6]. In addition, the GI50 in assay [7] is 12.9 µM; in assay [8] it was 1.37 µM; in assay [9], 2.15 µM; in assay [10], 0.783 µM. Further, the TGI in assay [1] turned out to be 20.5 µM; in [2] it was 5.33 µM; in [3], 26.8 µM; in [4], 29.8 µM; in assay [5] it was 36.4 µM; in assay [6] it was 24.6 µM. The TGI was 36.2 µM in assay [7], > 100 µM in [8], 5.31 µM in assay [9] and 14.3 µM in [10].
Turning to `COc1cccc2c1c1nc3cc(C)c(C)cc3nc1n2CCN(C)C`, the GI50 in assay [1] is 1.83 µM; in assay [2], 0.498 µM; in assay [3] it was 1.42 µM; in assay [4], 1.13 µM; in [5] it was 2.02 µM; in assay [6] it was 1.66 µM. Besides, the GI50 is 1.8 µM in assay [7], 1.68 µM in [8], 1.92 µM in [9] and 0.433 µM in assay [10]. The TGI was 9.43 µM in assay [1]; 3.65 µM in assay [3]; 6.73 µM in assay [4]; 12.2 µM in assay [5]; 5.57 µM in assay [6]; 6.99 µM in assay [7]. Also, the TGI in [8] amounted to 10.7 µM; in [9] it was 5.48 µM; in assay [10], 10.3 µM.
With `COc1ccc(F)cc1C(=O)c1cnc(NC2CCN(S(C)(=O)=O)CC2)nc1N`, the GI50 in [1] is 2.4 µM; in assay [2] it was 2.66 µM; in assay [3] it was 3.55 µM; in [4], 1.35 µM; in assay [5], 8.82 µM; in assay [6] it was 2.97 µM. The GI50 in [7] is 3.93 µM; in [8], 2.86 µM; in assay [9], 3.29 µM; in [10] it was 1.55 µM. Besides, the TGI in [1] is > 25 µM; in assay [2], > 19 µM; in assay [3], > 25 µM; in assay [4], 9.59 µM; in assay [5], > 25 µM; in assay [6] it was 16.7 µM. In addition, the TGI in assay [7] was 17.8 µM; in [8], > 18.2 µM; in [9], 7.77 µM; in assay [10], > 21.4 µM.
`CO[C@H](C(=O)N[C@@H](CCCCNC(=O)OCc1ccccc1)C(=O)OC(C)(C)C)[C@@H]1Cc2cc3cc(OC4CC(OC5CC(O)C(O)C(C)O5)C(O)C(C)O4)c(C)c(O)c3c(O)c2C(=O)[C@H]1OC1CC(OC2CC(OC3CC(C)(O)C(O)C(C)O3)C(O)C(C)O2)C(O)C(C)O1` (stereo partly specified): the GI50 in assay [1] is 0.603 µM; in assay [2], 0.381 µM; in assay [3] it was 0.885 µM; in assay [4], 0.443 µM; in [5], 1.02 µM; in [6] it was 0.667 µM. In addition, the GI50 in assay [7] was 1.05 µM; in [8], 0.508 µM; in assay [9], 0.559 µM; in [10] it was 0.67 µM. Moreover, the TGI turned out to be 2.05 µM in [1]; 2.73 µM in assay [2]; 3.2 µM in assay [3]; 1.97 µM in [4]; 2.81 µM in [5]; 2.37 µM in [6]. The TGI is 5 µM in [7], > 10 µM in assay [8], 3.08 µM in [9] and 4.45 µM in assay [10].
On to `CO[C@H]1CC[C@@]2(C)C(=CC[C@H]3[C@@H]4C[C@H](O)C[C@@]4(C)CC[C@@H]32)C1`, for which the GI50 in assay [1] is 4.5 µM; in assay [2], 4.92 µM; in [3] it was 11.6 µM; in [4], 1.38 µM; in assay [5] it was 4.46 µM; in assay [6], 5.54 µM. In addition, the GI50 is 2.16 µM in [7], 3.59 µM in assay [8], 3.01 µM in [9] and 8.2 µM in assay [10]. For the same compound, the TGI in assay [1] is 15.8 µM; in assay [2], 30.6 µM; in assay [3], 27.2 µM; in assay [4], 18.1 µM; in assay [5] it was 49 µM; in assay [6] it was 27.1 µM. For the same compound, the TGI in [7] was determined as 9.41 µM; in [8], 12.4 µM; in assay [9], 8.64 µM; in assay [10] it was 28.3 µM.
Turning to `COc1cc(C(=O)n2nc(N3CCN(C)CC3)c3cc(N)ccc32)cc(OC)c1OC`, the GI50 is 3.51 µM in [1]; 3.78 µM in assay [2]; 3.6 µM in [3]; 6.4 µM in [4]; 4.26 µM in assay [5]; 4.15 µM in [6]. Besides, the GI50 in assay [7] is 12.8 µM; in assay [8] it was 3.65 µM; in [9], 2.86 µM; in assay [10], 4.2 µM. Besides, the TGI in assay [1] was 27.2 µM; in assay [2], 43.9 µM; in [3], 14.3 µM; in [4], > 100 µM; in assay [5], 93.2 µM; in [6], > 100 µM. Further, the TGI in [7] was > 100 µM; in assay [8], 14.9 µM; in [9] it was 10.1 µM; in assay [10], > 100 µM.
Consider `COC(=O)C#Cc1ccc([N+](=O)[O-])cc1`, for which the TGI in assay [1] was 3.9 µM; in assay [2], 2.88 µM; in assay [3], 4.32 µM; in [4], 4.11 µM; in assay [5], 19 µM; in [6], 3.68 µM. For the same compound, the TGI is 47.5 µM in assay [7], 3.23 µM in [8], 4.08 µM in assay [9] and 2.9 µM in assay [10].
Consider `CC/C(=C(\CC)c1ccc(OCCN(CC)CC)cc1)c1ccc(OCCN(CC)CC)cc1`, for which the GI50 in assay [1] was 2.01 µM; in [2] it was 3.62 µM; in assay [3] it was 5.57 µM; in assay [4], 0.879 µM; in assay [5], 3.48 µM; in [6] it was 5.77 µM. The GI50 in [7] was 1.74 µM; in assay [8] it was 0.0759 µM; in assay [9] it was 1.29 µM; in [10], 3.99 µM. For the same compound, the TGI was found to be 12.6 µM in assay [1]; 18.2 µM in [2]; 18.9 µM in assay [3]; 4.72 µM in [4]; 12 µM in [5]; 21.8 µM in [6]. In addition, the TGI in [7] is 7.09 µM; in assay [8] it was 3.78 µM; in [9], 3.85 µM; in [10], 18.7 µM.
Regarding `Cc1ccc(C(=O)NC2CCCCC2)cc1-c1ccc(C(=O)NCC2CC2)cc1`, the GI50 in [1] is > 22.5 µM; in [2] it was > 25 µM; in [3], > 25 µM; in [4], 6.02 µM; in assay [5], > 25 µM; in assay [6], > 25 µM. The GI50 in assay [7] was > 20.2 µM; in assay [8], > 25 µM; in [9] it was > 25 µM; in [10] it was > 25 µM. Moreover, the TGI in assay [1], in assay [2], in assay [3], in assay [4], in assay [5] and in [6] was > 25 µM in each case. Moreover, the TGI in assay [7], in [8], in assay [9] and in assay [10] was > 25 µM each time.
Consider `Cc1cc(C)nc(SC2=C(Nc3cccc(Cl)c3)C(=O)N(Cc3ccccc3)C2=O)n1`, for which the GI50 in assay [1], in assay [2], in assay [3], in assay [4], in assay [5] and in assay [6] was > 170 µM each time. In addition, the GI50 in [7], in [8], in assay [9] and in assay [10] was > 170 µM each time. Besides, the TGI in [1], in assay [2], in assay [3], in assay [4], in [5] and in assay [6] was > 170 µM in each case. Moreover, the TGI in [7], in assay [8], in [9] and in [10] was > 170 µM throughout.
For `C=C[C@]1(C)C=C2C(=O)[C@@]3(O)OC(=O)[C@@]4(CCCC(C)(C)[C@H]34)[C@@]2(O)CC1`, the GI50 in assay [1] was 3.42 µM; in assay [2] it was 1.74 µM; in [3] it was 2.14 µM; in assay [4], 0.282 µM; in [5], 4.65 µM; in [6] it was 2.14 µM. For the same compound, the GI50 is 2.77 µM in assay [7], 2.12 µM in assay [8], 1.37 µM in [9] and 1.12 µM in assay [10]. Further, the TGI was 13.8 µM in [1]; 7.53 µM in assay [2]; 3.81 µM in assay [3]; 1.62 µM in [4]; 17 µM in [5]; 5.29 µM in [6]. Moreover, the TGI is > 100 µM in assay [7], 6.86 µM in assay [8], 2.76 µM in assay [9] and 2.35 µM in assay [10].
Consider `ON(CCc1ccccn1)Cc1ccccc1`, for which the TGI in assay [1], in [2], in assay [3], in assay [4], in assay [5] and in assay [6] was > 100 µM each time. For the same compound, the TGI in assay [7], in assay [8], in assay [9] and in assay [10] was > 100 µM throughout.
Take `C/C(=C\c1ccn(-c2ccc(N)cc2)n1)[C@@H]1C[C@@H]2O[C@]2(C)CCC[C@H](C)[C@H](O)[C@@H](C)C(=O)C(C)(C)[C@@H](O)CC(=O)O1`: the GI50 in [1] is 0.0196 µM; in [2], 0.0486 µM; in assay [3], 0.0382 µM; in assay [5], 0.226 µM; in assay [6], 0.0594 µM; in assay [7], 0.0863 µM. For the same compound, the GI50 is 0.0187 µM in assay [8], 0.0702 µM in assay [9] and 0.161 µM in assay [10]. For the same compound, the TGI in assay [1], in [2], in assay [3], in assay [4], in assay [5] and in assay [6] was > 50 µM in each case. Further, the TGI is > 21.6 µM in assay [7], > 50 µM in assay [8], 0.357 µM in assay [9] and > 50 µM in assay [10].
With `Cc1ccc(NC(=O)c2ccnc(N3CCCC3)c2)cc1-c1ccc(C(=O)NCC2CC2)cc1`, the GI50 was > 25 µM in assay [1]; > 25 µM in [2]; > 25 µM in assay [3]; 8.2 µM in assay [4]; > 25 µM in assay [5]; > 25 µM in [6]. Besides, the GI50 in assay [7], in assay [8], in assay [9] and in assay [10] was > 25 µM throughout. The TGI in [1], in assay [2], in [3], in assay [4], in assay [5] and in assay [6] was > 25 µM throughout. Also, the TGI in assay [7], in assay [8], in [9] and in assay [10] was > 25 µM in each case.
Take `COc1ccc2c(c1)Cc1c-2c(NN)nc2ccccc12`: the GI50 was 13.8 µM in assay [1]; 27.3 µM in assay [2]; 28.4 µM in assay [3]; 22.8 µM in assay [4]; 16.9 µM in assay [5]; 35.8 µM in assay [7]. Besides, the results for the GI50 in [8], in assay [9] and in [10] were 31.5 µM, 36.3 µM and 44.7 µM, respectively. For the same compound, the TGI was > 100 µM in [1]; > 100 µM in [2]; > 100 µM in assay [3]; 71.6 µM in [4]; 77.6 µM in [5]; > 100 µM in assay [7]. In addition, the TGI in assay [8], in assay [9] and in assay [10] was > 100 µM in each case.
